Biological target: Egl nine homolog 1 (Homo sapiens, UniProt Q9GZT9)
Assay: In Vitro Inhibition Assay: In vitro tests for determination of the activity and selectivity of HIF prolyl 4-hydroxylase inhibitors. Hydroxylated HIF bonds specifically to the von Hippel-Lindau protein-elongin B-elongin C complex (VBC complex). This interaction occurs only if HIF is hydroxylated on a conserved prolyl radical. It is the basis for the biochemical determination of HIF prolyl hydroxylase activity. The test is carried out as described [Oehme F., Jonghaus W., Narouz-Ott L., Huetter J., Flamme I., Anal. Biochem. 330 (1), 74-80 (2004)].

Chain of Egl nine homolog 1 (Q9GZT9 whole entry, looked up): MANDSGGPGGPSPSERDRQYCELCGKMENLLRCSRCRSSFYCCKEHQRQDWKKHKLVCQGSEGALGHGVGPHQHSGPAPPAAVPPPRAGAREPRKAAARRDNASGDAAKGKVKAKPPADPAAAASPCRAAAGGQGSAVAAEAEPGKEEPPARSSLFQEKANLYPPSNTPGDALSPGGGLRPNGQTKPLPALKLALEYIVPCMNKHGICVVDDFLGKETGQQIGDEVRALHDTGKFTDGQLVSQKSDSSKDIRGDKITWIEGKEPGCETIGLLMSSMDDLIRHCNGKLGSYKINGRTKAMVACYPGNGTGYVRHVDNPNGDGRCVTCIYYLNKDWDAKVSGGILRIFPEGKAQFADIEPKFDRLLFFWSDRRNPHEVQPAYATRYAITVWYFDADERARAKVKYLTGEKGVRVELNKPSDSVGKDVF

N#Cc1cn(-c2c[nH]n(-c3cc(N4CC(F)(F)C4)ncn3)c2=O)cn1
IC50: 90 nM

Source: ChEMBL document CHEMBL3639310, “Substituted dihydropyrazolones and their use” (2013)
